According to patent US9018242B2, “Salt form of tyrosine kinase inhibitor” (Jiangsu Simcere Pharmaceutical R&D Co., Ltd, priority 2011, dated 2015):
≈ marks a conversion by molar mass, not a printed value.

Key:
[1] = Hygroscopicity measurement (weight gain); assay type: physicochemical; details: 25±1° C., relative humidity 80±2%, 24 hours
Protocol: The method for measuring the hygroscopicity may include: placing a certain amount of a sample to be tested into a precisely weighed glass weighing bottle (m1) with a plug and precisely weighing (m2); placing the opened weighing bottle into a thermostatic dryer (with saturated ammonium sulfate solution placed at the bottom, with a relative humidity of 80±2%) at 25±1° C. for 24 hours; covering the weighing bottle with the plug and precisely weighing (m3), and calculating the percent of weight gain of the sample to be tested according to the following equation: […]
The measurement method includes: placing a certain amount of sample to be tested into a precisely weighed glass weighing bottle (m1) with a plug and precisely weighing (m2); placing the opened weighing bottle in a thermostated dryer (with saturated ammonium sulfate solution placed at the bottom, with a relative humidity of 80±2%) at 25±1° C. for 24 hours; covering the weighing bottle with the plug and precisely weighing (m3).
Characterization of the hygroscopicity and definition of the hygroscopic weight gain:
Deliquescence: sufficient moisture was absorbed to form liquid;
Slight hygroscopicity: hygroscopic weight gain was less than 2% and not less than 0.2%: […]

[2] = Solubility in water by HPLC; assay type: physicochemical; details: purified water, 25° C.; for solubility at 30 min: thermodynamic from solid
Protocol: Liquid chromatograph: Agilent 1200 HPLC system (diode array detector), ChemStation
Mobile phase: acetonitrile/water
Detection wavelength: 264 nm
About 100 mg sample to be tested was precisely weighed and placed into a 100 ml graduated flask at 25° C.; an appropriate amount of solvent [acetonitrile/water (80:20)] was added to dissolve the sample under ultrasonic sound, and the solution was diluted to a given scale and shaken up; 10 μl resulting solution was precisely measured and loaded into the liquid chromatograph, the chromatogram was recorded, and the peak area Scontrol was measured.
10 ml purified water was measured and placed into a 25 ml Kjeldahl flask. The sample to be tested was gradually added at 25° C. until an insoluble solid appeared in the solution. The solution was treated under ultrasonic sound for 30 min and the insoluble solid was filtered off. 10 μl filtrate was precisely weighed and loaded into the liquid chromatograph, the chromatogram was recorded, and the peak area Stest was measured.

[3] = Plasma exposure (AUC) in rats after gavage administration; assay type: in vivo; details: rat, po, male SD rats, 10 mg/kg (based on pharmaceutically active compound), salts dissolved in pure water, active compound as suspension in 0.5% CMC, up to 24 h
Protocol: Laboratory animal: male SD rats
Dosage: 10 mg/kg (based on pharmaceutically active compound)
Formulation for salts: dissolving in pure water
(§1) Formulation for pharmaceutically active compound: suspension in CMC (carboxymethylcellulose), 0.5%
Animal Grouping and Testing Course:
Each group includes three male rats having a weight of 180 to 210 g. Gavage administration was performed; the blood was collected at point of time: 5 min, 15 min, 30 min, 45 min, 1 h, 2 h, 4 h, 6 h, 10 h and 24 h; about 250 μl blood was collected from orbital venous plexus into a heparin-containing tube, centrifuged, and 100 μl plasma was used for LC-MS analysis.

[4] = system: human colon cancer HT-29 xenografts; assay: Therapeutic effect on human colon cancer HT-29 xenografts in nude mice; assay type: in vivo, BALB/cA-nude mice; details: 40 mg/kg (based on pharmaceutically active compound), gavage for 21 days, L-malate in pure water, active compound as suspension in 0.5% CMC
Protocol: Laboratory animal: BALB/cA-nude mice, 6-7 weeks, ♀
Dosage: 40 mg/kg (based on pharmaceutically active compound)
Formulation for L-malate: dissolving in pure water
as §1
Nude mice were subcutaneously inoculated with human colon cancer HT-29 cells. After the tumor grew to a size of 150 to 250 mm^3, the animals were randomly divided into three groups (d0). The animals were continuously administered through gavage for 21 days, and the tumor volume was measured 2 to 3 times per week. The tumor volume (V) was calculated according to the equation: V=1/2×a×b^2, where a and b represent length and width respectively.
The relative proliferation of tumor=T/C(%)=(T−T0)/(C−C0)×100, where T and C are the tumor volumes at the end of experiment, T0 and C0 are the tumor volumes at the start of experiment; the tumor inhibition rate=1−T/C(%).

Molecule	Hygroscopicity [1]	solubility at 30 min [2]	Solubility in Water [2]	AUC(0-t) [3]	Tumor Inhibition Rate [4]
CCN(CC)CCNC(=O)c1c(C)[nH]c2c1CCC/C2=C1/C(=O)Nc2ccc(F)cc21.O=C(O)/C=C/C(=O)O [Fumarate, (Z)—N-[2-(diethylamino)ethyl]-2-methyl-7-(1,2-dihydro-5-fluoro-2-oxo-3H-indol-3-ylidene)-4,5,6,7-tetrahydro-1H-indol-3-carboxamide fumarate]	Slight hygroscopicity (hygroscopic weight gain was less than 2% and not less than 0.2%)	0.0168 mg/mL	–	–	–
Br.CCN(CC)CCNC(=O)c1c(C)[nH]c2c1CCC/C2=C1/C(=O)Nc2ccc(F)cc21 [Hydrobromate, (Z)—N-[2-(diethylamino)ethyl]-2-methyl-7-(1,2-dihydro-5-fluoro-2-oxo-3H-indol-3-ylidene)-4,5,6,7-tetrahydro-1H-indol-3-carboxamide hydrobromate]	Almost no hygroscopicity	–	3.5922 mg/mL	–	–
CCN(CC)CCNC(=O)c1c(C)[nH]c2c1CCC/C2=C1/C(=O)Nc2ccc(F)cc21.O=S(=O)(O)c1ccccc1 [Benzenesulfonate, (Z)—N-[2-(diethylamino)ethyl]-2-methyl-7-(1,2-dihydro-5-fluoro-2-oxo-3H-indol-3-ylidene)-4,5,6,7-tetrahydro-1H-indol-3-carboxamide benzenesulfonate]	Hygroscopicity (hygroscopic weight gain was less than 15% and not less than 2%)	19.2 mg/mL	–	–	–
CCN(CC)CCNC(=O)c1c(C)[nH]c2c1CCC/C2=C1/C(=O)Nc2ccc(F)cc21.O=C(O)/C=C\C(=O)O [Maleate, (Z)—N-[2-(diethylamino)ethyl]-2-methyl-7-(1,2-dihydro-5-fluoro-2-oxo-3H-indol-3-ylidene)-4,5,6,7-tetrahydro-1H-indol-3-carboxamide maleate]	Slight hygroscopicity (hygroscopic weight gain was less than 2% and not less than 0.2%)	1.32 mg/mL	–	–	–
(Z)—N-[2-(diethylamino)ethyl]-2-methyl-7-(1,2-dihydro-5-fluoro-2-oxo-3H-indol-3-ylidene)-4,5,6,7-tetrahydro-1H-indol-3-carboxamide L-mandelate	Hygroscopicity (hygroscopic weight gain was less than 15% and not less than 2%)	–	14.7218 mg/mL	–	–
CC(=O)O.CCN(CC)CCNC(=O)c1c(C)[nH]c2c1CCC/C2=C1/C(=O)Nc2ccc(F)cc21 [Acetate, (Z)—N-[2-(diethylamino)ethyl]-2-methyl-7-(1,2-dihydro-5-fluoro-2-oxo-3H-indol-3-ylidene)-4,5,6,7-tetrahydro-1H-indol-3-carboxamide acetate]	Strong hygroscopicity (hygroscopic weight gain was not less than 15%)	30.7 mg/mL	–	–	–
CCN(CC)CCNC(=O)c1c(C)[nH]c2c1CCC/C2=C1/C(=O)Nc2ccc(F)cc21.O=C(O)CC(O)(CC(=O)O)C(=O)O [Citrate, (Z)—N-[2-(diethylamino)ethyl]-2-methyl-7-(1,2-dihydro-5-fluoro-2-oxo-3H-indol-3-ylidene)-4,5,6,7-tetrahydro-1H-indol-3-carboxamide citrate]	Slight hygroscopicity (hygroscopic weight gain was less than 2% and not less than 0.2%)	38.2 mg/mL	–	838 ng·h/mL	–
CCN(CC)CCNC(=O)c1c(C)[nH]c2c1CCC/C2=C1/C(=O)Nc2ccc(F)cc21.O=P(O)(O)O [Phosphate, (Z)—N-[2-(diethylamino)ethyl]-2-methyl-7-(1,2-dihydro-5-fluoro-2-oxo-3H-indol-3-ylidene)-4,5,6,7-tetrahydro-1H-indol-3-carboxamide phosphate]	Slight hygroscopicity (hygroscopic weight gain was less than 2% and not less than 0.2%)	29.7 mg/mL	–	322 ng·h/mL	–
CC(O)C(=O)O.CCN(CC)CCNC(=O)c1c(C)[nH]c2c1CCC/C2=C1/C(=O)Nc2ccc(F)cc21 [Lactate, (Z)—N-[2-(diethylamino)ethyl]-2-methyl-7-(1,2-dihydro-5-fluoro-2-oxo-3H-indol-3-ylidene)-4,5,6,7-tetrahydro-1H-indol-3-carboxamide lactate]	Hygroscopicity (hygroscopic weight gain was less than 15% and not less than 2%)	24 mg/mL	–	652 ng·h/mL	–
CCN(CC)CCNC(=O)c1c(C)[nH]c2c1CCC/C2=C1/C(=O)Nc2ccc(F)cc21.O=C(O)CCC(=O)O [Succinate, (Z)—N-[2-(diethylamino)ethyl]-2-methyl-7-(1,2-dihydro-5-fluoro-2-oxo-3H-indol-3-ylidene)-4,5,6,7-tetrahydro-1H-indol-3-carboxamide succinate]	Slight hygroscopicity (hygroscopic weight gain was less than 2% and not less than 0.2%)	13.4 mg/mL	–	–	–
CCN(CC)CCNC(=O)c1c(C)[nH]c2c1CCC/C2=C1/C(=O)Nc2ccc(F)cc21.O=S(=O)(O)O [Sulfate, (Z)—N-[2-(diethylamino)ethyl]-2-methyl-7-(1,2-dihydro-5-fluoro-2-oxo-3H-indol-3-ylidene)-4,5,6,7-tetrahydro-1H-indol-3-carboxamide sulfate]	Slight hygroscopicity (hygroscopic weight gain was less than 2% and not less than 0.2%)	0.236 mg/mL	–	–	–
CCN(CC)CCNC(=O)c1c(C)[nH]c2c1CCC/C2=C1/C(=O)Nc2ccc(F)cc21 [Pharmaceutically active compound, (Z)—N-[2-(diethylamino)ethyl]-2-methyl-7-(1,2-dihydro-5-fluoro-2-oxo-3H-indol-3-ylidene)-4,5,6,7-tetrahydro-1H-indol-3-carboxamide]	Almost no hygroscopicity	0.02 mg/mL (≈ 47.1 µM)	–	128 ng·h/mL	40%
CCN(CC)CCNC(=O)c1c(C)[nH]c2c1CCC/C2=C1/C(=O)Nc2ccc(F)cc21.Cc1ccc(S(=O)(=O)O)cc1 [P-toluenesulfonate, (Z)—N-[2-(diethylamino)ethyl]-2-methyl-7-(1,2-dihydro-5-fluoro-2-oxo-3H-indol-3-ylidene)-4,5,6,7-tetrahydro-1H-indol-3-carboxamide p-toluenesulfonate]	Slight hygroscopicity (hygroscopic weight gain was less than 2% and not less than 0.2%)	0.419 mg/mL	–	–	–
CCN(CC)CCNC(=O)c1c(C)[nH]c2c1CCC/C2=C1/C(=O)Nc2ccc(F)cc21.O=C(O)C(O)C(O)C(=O)O [L-tartrate, (Z)—N-[2-(diethylamino)ethyl]-2-methyl-7-(1,2-dihydro-5-fluoro-2-oxo-3H-indol-3-ylidene)-4,5,6,7-tetrahydro-1H-indol-3-carboxamide L-tartrate]	Slight hygroscopicity (hygroscopic weight gain was less than 2% and not less than 0.2%)	10.6 mg/mL	–	–	–
CCN(CC)CCNC(=O)c1c(C)[nH]c2c1CCC/C2=C1/C(=O)Nc2ccc(F)cc21.CS(=O)(=O)O [Methanesulfonate, (Z)—N-[2-(diethylamino)ethyl]-2-methyl-7-(1,2-dihydro-5-fluoro-2-oxo-3H-indol-3-ylidene)-4,5,6,7-tetrahydro-1H-indol-3-carboxamide methanesulfonate]	Strong hygroscopicity (hygroscopic weight gain was not less than 15%)	12.3 mg/mL	–	–	–
CCN(CC)CCNC(=O)c1c(C)[nH]c2c1CCC/C2=C1/C(=O)Nc2ccc(F)cc21.Cl [Hydrochloride, (Z)—N-[2-(diethylamino)ethyl]-2-methyl-7-(1,2-dihydro-5-fluoro-2-oxo-3H-indol-3-ylidene)-4,5,6,7-tetrahydro-1H-indol-3-carboxamide hydrochloride]	Almost no hygroscopicity	22.8 mg/mL	–	185 ng·h/mL	–
